In US8394796B2, “Bicyclic pyrimidine PI3K inhibitor compounds selective for P110 delta, and methods of use” (Genentech, Inc., priority 2009, dated 2013):

Target: T1, p110δ/p85α (PI3K p110 delta) (Homo sapiens, UniProt O00329)
T1 construct: purchased Upstate Group, Millipore; Dundee, UK
Assay: PI3K isoform inhibition assay (fluorescence polarization PIP3 displacement; alternatively radiometric), p110 delta
Assay type: biochemical
Conditions: for IC50: PI3K p110 delta binding IC50; for IC50 p110 alpha/IC50 p110 delta: delta/alpha selectivity: ratio of p110 alpha IC50 to p110 delta IC50
Protocol: PI3K Isoform Inhibition Assay (p110 Alpha, Beta, Gamma, Delta: α, β, γ, δ)
PI3K enzymatic activity was assayed by measuring the amount of product phosphatidylinositol 3,4,5-phosphate (PIP3) formed from substrate 4,5 phosphatidylinositol 4,5-phosphate (PIP2) using a fluorescence polarization displacement assay. The decrease in fluorescence polarization of a fluorescent PIP3 probe is measured as it is displaced from a PIP3-binding protein GRP-1 detector by PI3K-catalyzed product. […] The kinase reactions were initiated by the addition of 40 ng/mL p110α/p85α, 300 ng/mL p110β/p85α, 40 ng/mL p110γ, or 40 ng/mL p110δ/p85α (Upstate Group, Millipore; Dundee, UK), and 10 μM PIP2 (Echelon Biosciences) to the wells. […] After 60 minutes of incubation at room temperature to allow equilibration of labeled and unlabeled PIP3 binding, the parallel and perpendicular components of the fluorescence emissions from each sample were measured at an excitation wavelength of 530 nm and an emission wavelength of 590 nm using an Envision fluorescent plate reader with a rhodamine filter (PerkinElmer Life and Analytical Sciences; Wellesley, Mass.). The assay is capable of detecting 0.1-2.0 μM PIP3 product. The IC50 values were obtained by fitting the dose-dependent inhibition data to a 4-parameter equation using Assay Explorer software (MDL, San Ramon, Calif.).
The Formula I compound was serially diluted in 100% DMSO. The kinase reaction was incubated for 1 h at room temperature, and the reaction was terminated by the addition of PBS. IC50 values were subsequently determined using sigmoidal dose-response curve fit (variable slope).
HT baculovirus expression system (GIBCO/BRL), and then purified for use in biochemical assays. The four Class I PI 3-kinases are cloned into baculovirus vectors as follows: […]

T1 sequence (O00329 whole entry): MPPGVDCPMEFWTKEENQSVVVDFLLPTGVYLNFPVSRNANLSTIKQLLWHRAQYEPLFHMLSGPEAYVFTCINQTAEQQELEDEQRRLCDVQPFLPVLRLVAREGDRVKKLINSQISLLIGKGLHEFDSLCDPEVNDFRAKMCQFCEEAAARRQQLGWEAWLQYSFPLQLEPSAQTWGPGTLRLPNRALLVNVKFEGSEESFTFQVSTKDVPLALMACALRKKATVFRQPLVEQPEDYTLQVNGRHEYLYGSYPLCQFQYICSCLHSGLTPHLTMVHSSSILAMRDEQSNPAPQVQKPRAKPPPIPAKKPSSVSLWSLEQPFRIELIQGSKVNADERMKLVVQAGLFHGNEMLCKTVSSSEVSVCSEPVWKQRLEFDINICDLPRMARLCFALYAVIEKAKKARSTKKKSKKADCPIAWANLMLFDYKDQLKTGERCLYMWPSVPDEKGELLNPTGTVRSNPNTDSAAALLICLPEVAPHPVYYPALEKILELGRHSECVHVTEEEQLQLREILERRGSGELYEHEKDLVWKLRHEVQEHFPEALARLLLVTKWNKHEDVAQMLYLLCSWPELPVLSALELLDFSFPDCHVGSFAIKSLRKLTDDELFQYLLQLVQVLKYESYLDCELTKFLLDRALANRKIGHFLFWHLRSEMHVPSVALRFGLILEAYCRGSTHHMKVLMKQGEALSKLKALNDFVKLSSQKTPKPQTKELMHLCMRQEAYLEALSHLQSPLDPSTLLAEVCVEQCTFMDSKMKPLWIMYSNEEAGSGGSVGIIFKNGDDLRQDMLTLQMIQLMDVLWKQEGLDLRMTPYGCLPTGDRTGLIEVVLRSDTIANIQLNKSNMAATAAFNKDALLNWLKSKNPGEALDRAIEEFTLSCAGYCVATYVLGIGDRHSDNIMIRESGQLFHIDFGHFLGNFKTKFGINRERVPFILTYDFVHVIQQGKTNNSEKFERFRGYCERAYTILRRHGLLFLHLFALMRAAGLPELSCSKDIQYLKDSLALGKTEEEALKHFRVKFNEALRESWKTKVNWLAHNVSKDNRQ
T1 sequence (P27986 whole entry partner): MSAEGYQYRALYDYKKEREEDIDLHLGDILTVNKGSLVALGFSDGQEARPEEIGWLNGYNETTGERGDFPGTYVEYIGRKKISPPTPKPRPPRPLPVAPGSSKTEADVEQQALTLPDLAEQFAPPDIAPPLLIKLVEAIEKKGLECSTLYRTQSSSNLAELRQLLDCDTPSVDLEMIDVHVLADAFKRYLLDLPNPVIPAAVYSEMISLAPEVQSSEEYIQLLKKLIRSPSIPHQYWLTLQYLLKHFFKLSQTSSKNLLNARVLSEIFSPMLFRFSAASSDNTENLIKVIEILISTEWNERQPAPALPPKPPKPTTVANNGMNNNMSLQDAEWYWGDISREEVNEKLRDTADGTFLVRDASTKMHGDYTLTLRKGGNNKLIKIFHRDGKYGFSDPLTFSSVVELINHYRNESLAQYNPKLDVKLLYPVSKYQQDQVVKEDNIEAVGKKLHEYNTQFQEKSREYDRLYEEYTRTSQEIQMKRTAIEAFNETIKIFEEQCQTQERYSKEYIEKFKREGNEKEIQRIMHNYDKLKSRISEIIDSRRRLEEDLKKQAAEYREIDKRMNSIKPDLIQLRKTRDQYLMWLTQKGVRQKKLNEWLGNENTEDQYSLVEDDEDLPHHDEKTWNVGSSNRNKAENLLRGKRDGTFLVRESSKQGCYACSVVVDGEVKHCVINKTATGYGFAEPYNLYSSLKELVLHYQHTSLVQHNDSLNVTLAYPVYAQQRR

Compound	IC50	IC50 p110 alpha/IC50 p110 delta
c1cc(-c2nc(N3CCOCC3)c3sc(CN4CCC(N5CCOCC5)CC4)cc3n2)c2ccncc2c1 [Example 101, 4-(1-((2-(isoquinolin-5-yl)-4-morpholinothieno[3,2-d]pyrimidin-6-yl)methyl)piperidin-4-yl)morpholine]	101 nM	53
Cc1c(CN2CCN(C(C)(C)C(N)=O)CC2)sc2c(N3CCOCC3)nc(-c3cncc4[nH]ccc34)nc12 [Example 112, 2-methyl-2-(4-((7-methyl-4-morpholino-2-(1H-pyrrolo[2,3-c]pyridin-4-yl)thieno[3,2-d]pyrimidin-6-yl)methyl)piperazin-1-yl)propanamide]	1.8 nM	29
Cn1c(CN2CCC(C(C)(C)O)CC2)nc2c(N3CCOCC3)nc(-c3cnc(N)c4ccccc34)nc21 [Example 115, 2-(1-((2-(1-aminoisoquinolin-4-yl)-9-methyl-6-morpholino-9H-purin-8-yl)methyl)piperidin-4-yl)propan-2-ol]	7.2 nM	34
CC(C)(C(N)=O)N1CCN(Cc2nc3c(N4CCOCC4)nc(-c4cncc5[nH]ccc45)nc3s2)CC1 [Example 131, 2-methyl-2-(4-((7-morpholino-5-(1H-pyrrolo[2,3-c]pyridin-4-yl)thiazolo[5,4-d]pyrimidin-2-yl)methyl)piperazin-1-yl)propanamide]	1.3 nM	32
CN(C)C1CCN(Cc2cc3nc(-n4ccc5cnccc54)nc(N4CCOCC4)c3s2)CC1 [Example 149, N,N-dimethyl-1-((4-morpholino-2-(1H-pyrrolo[3,2-c]pyridin-1-yl)thieno[3,2-d]pyrimidin-6-yl)methyl)piperidin-4-amine]	6.9 nM	30
Cn1c(CN2CCC(C(C)(C)O)CC2)nc2c(N3CCOCC3)nc(-c3n[nH]c4ccccc34)nc21 [Example 162, 2-(1-((2-(1H-indazol-3-yl)-9-methyl-6-morpholino-9H-purin-8-yl)methyl)piperidin-4-yl)propan-2-ol]	14.6 nM	191
COC(C)(C)C1CCN(Cc2nc3c(N4CCOCC4)nc(-c4c(C)oc5ccccc45)nc3n2C)CC1 [Example 200, 4-(8-((4-(2-methoxypropan-2-yl)piperidin-1-yl)methyl)-9-methyl-2-(2-methylbenzofuran-3-yl)-9H-purin-6-yl)morpholine]	22.2 nM	54
Cc1oc2ccccc2c1-c1nc(N2CCOCC2)c2nc(CN3CCN(C(C)(C)C(N)=O)CC3)sc2n1 [Example 211, 2-methyl-2-(4-((5-(2-methylbenzofuran-3-yl)-7-morpholinothiazolo[5,4-d]pyrimidin-2-yl)methyl)piperazin-1-yl)propanamide]	9.7 nM	>300
CC(C)(C(N)=O)N1CCN(Cc2nc3nc(-c4cccc5nccn45)nc(N4CCOCC4)c3s2)CC1 [Example 248, 2-(4-((5-(imidazo[1,2-a]pyridin-5-yl)-7-morpholinothiazolo[4,5-d]pyrimidin-2-yl)methyl)piperazin-1-yl)-2-methylpropanamide]	42.9 nM	35
CCc1nc2ccccc2n1-c1nc(N2CCOCC2)c2nc(CN3CCN(C(C)(C)CO)CC3)[nH]c2n1 [Example 489, 2-(4-((2-(2-ethyl-1H-benzo[d]imidazol-1-yl)-6-morpholino-9H-purin-8-yl)methyl)piperazin-1-yl)-2-methylpropan-1-ol]	1.37 nM	157
Cn1c(CN2CC(C3CCOCC3)C2)nc2c(N3CCOCC3)nc(-n3c(C4CC4)nc4ccccc43)nc21 [Example 499, 4-(2-(2-cyclopropyl-1H-benzo[d]imidazol-1-yl)-9-methyl-8-((3-(tetrahydro-2H-pyran-4-yl)azetidin-1-yl)methyl)-9H-purin-6-yl)morpholine]	6.3 nM	75
CCc1nc2ccccc2n1-c1nc(N2CCOCC2)c2nc(CC3CN(C4CCS(=O)(=O)CC4)C3)n(C)c2n1 [Example 501, 4-(2-(2-ethyl-1H-benzo[d]imidazol-1-yl)-9-methyl-8-((1-(tetrahydro-2H-(1,1-dioxo)-thiopyran-4-yl)azetidin-3-yl)methyl)-9H-purin-6-yl)morpholine]	0.589 nM	140
CCc1nc2ccccc2n1-c1nc(N2CCOCC2)c2nc(CN3C[C@@H]4C[C@H]3CN4C(C)(C)CO)n(C)c2n1 [Example 521, 2-((1S,4S)-5-((2-(2-ethyl-1H-benzo[d]imidazol-1-yl)-9-methyl-6-morpholino-9H-purin-8-yl)methyl)-2,5-diazabicyclo[2.2.1]heptan-2-yl)-2-methylpropan-1-ol]	1.45 nM	150
CCc1nc2ccccc2n1-c1nc(N2CCOCC2)c2nc(CCN3CCOCC3(C)C)n(C)c2n1 [Example 535, 4-(2-(2-(2-ethyl-1H-benzo[d]imidazol-1-yl)-9-methyl-6-morpholino-9H-purin-8-yl)ethyl)-3,3-dimethylmorpholine]	9.9 nM	49
CCc1nc2ccccc2n1-c1nc(N2CCOCC2)c2nc(CC(=O)N3CCC(C(C)(C)O)CC3)sc2n1 [Example 549, 2-(5-(2-ethyl-1H-benzo[d]imidazol-1-yl)-7-morpholinothiazolo[5,4-d]pyrimidin-2-yl)-1-(4-(2-hydroxypropan-2-yl)piperidin-1-yl)ethanone]	9.4 nM	14
CC(C)c1nc2ccccc2n1-c1nc(N2CCOCC2)c2nc(-c3cccnc3)n(C)c2n1 [Example 676, 4-(2-(2-isopropyl-1H-benzo[d]imidazol-1-yl)-9-methyl-8-(pyridin-3-yl)-9H-purin-6-yl)morpholine]	13.6 nM	14
COc1cccc(-c2nc3c(N4CCOCC4)nc(-n4c(C(C)C)nc5ccccc54)nc3n2C)c1 [Example 683, 4-(2-(2-isopropyl-1H-benzo[d]imidazol-1-yl)-8-(3-methoxyphenyl)-9-methyl-9H-purin-6-yl)morpholine]	31.7 nM	23
CCc1nc2ccccc2n1-c1nc(N2CCOCC2)c2nc(CN3CCC(C(C)(C)O)CC3)[nH]c2n1 [Example 701, 2-(1-((2-(2-ethyl-1H-benzo[d]imidazol-1-yl)-6-morpholino-9H-purin-8-yl)methyl)piperidin-4-yl)propan-2-ol]	–	50
